According to ChEMBL document CHEMBL3745694, “Total synthesis and cytotoxic activities of longamide B, longamide B methyl ester, hanishin, and their analogues” (Bioorg Med Chem Lett, 2016):

Columns and labels:
[1] = Cytotoxicity against human PC3 cells after 72 hrs by CCK-8 assay; assay type: functional, cell-based; conditions: PC-3, 72 h
A549 = assay: Cytotoxicity against human A549 cells after 72 hrs by CCK-8 assay; assay type: functional, cell-based; conditions: A549, 72 h

SMILES	IC50 [1] [µM]	IC50 (A549) [µM]
COC(=O)CC1CNC(=O)c2cccn21 (configuration not stated)	> 200	> 200
COC(=O)CC1CNC(=O)c2ccc(Br)n21 (configuration not stated)	70	65
CCOC(=O)CC1CNC(=O)c2ccc(Br)n21 (configuration not stated)	29	32
COC(=O)Cc1c[nH]c(=O)c2ccc(Br)n12	176	165
O=C(O)CC1CNC(=O)c2ccc(Br)n21 (configuration not stated)	> 200	> 200
COC(=O)Cc1c[nH]c(=O)c2cccn12	> 200	> 200
COC(=O)Cc1c[nH]c(=O)c2cc(Br)c(Br)n12	> 200	> 200
CCOC(=O)CC1CNC(=O)c2cc(Br)c(Br)n21 (racemic)	39	41
O=C(O)CC1CNC(=O)c2cc(Br)c(Br)n21 (racemic)	> 200	> 200
COC(=O)CC1CNC(=O)c2cc(Br)c(Br)n21 (racemic)	79	82
CO[C@@]12[C@H](COC(N)=O)C3=C(C(=O)C(C)=C(N)C3=O)N1C[C@@H]1N[C@@H]12 [MITOMYCIN]	1.4	1.7
